The text below walks through data of patent publication US11834454B2, “Alkynylphenylbenzamide compounds and applications thereof” (SHENZHEN NEWDEL BIOTECH CO., LTD., priority 2021, dated 2023).

The term IC50 denotes the concentration at which inhibition is half-maximal.

One assay deals with T1, TRKA (Homo sapiens, UniProt P04629).
T1 construct: purchased American Life Technologies PV3144
The experiment in a line: Z'-LYTE kinase activity detection, TRKA. Format: biochemical.

The next assay concerns the target T2, TRKB (Homo sapiens, UniProt Q16620).
T2 construct: purchased American Life Technologies PV3616
The experiment in a line: Z'-LYTE kinase activity detection, TRKB. Format: biochemical.

The target of another assay is T3, BaF3-CD74-NTRK1 (Homo sapiens, UniProt P04629).
T3 construct: fused on or other part: P04233 (HLA class II histocompatibility antigen gamma chain)
Put plainly: Cell proliferation inhibition, Ba/F3-TRKs stable strain (CCK-8). The conditions noted are these: 72 hours, read-out: cell viability IC50 CD74-NTRK1. Format: cell-based, mouse. The source says: (§1) The BaF3 cells (mouse pre-B cells) used in this experiment were purchased from the Japanese Cell Bank. All of the monoclonal stable strains, BaF3-CD74-NTRK1, BaF3-ETV6-NTRK2 and BaF3-ETV6-NTRK3 were constructed by our laboratory, and were identified by experiments such as positive control, protein expression and gene sequencing.
(§2) The brief steps of stable strain construction were as follows: constructed pCDNA3.1(+) plasmid vector carrying genes such as CD74-NTRK1, ETV6-NTRK2, ETV6-NTRK3; the plasmid was electroporated into Ba/F3 cells using Amaxa® Cell Line Nucleofector® Kit V; 48 hours after electroporation, geneticin (G418) with a final concentration of 1000 μg/mL was added to screen for two weeks, and the interleukin 3 (IL3) was removed to continue screening to obtain polyclonal stable strains; and then single clones were selected by limiting dilution method; the stable strains were then identified by the positive drugs, Western Blot (WB), and gene sequencing; the correct monoclonal through identification can be used to study the cell proliferation inhibitory activity of the inhibitors.
(§3) Cell proliferation inhibitory activity study: The cells in logarithmic growth phase were seeded into 96-well plates at 8000-12000 cells/well, and the inhibitors at different concentrations of (0-10 μM) were added the next day, and the culture was continued for 72 hours; then 10 μL of Cell Counting Kit-8 Cell Counting Reagent (CCK-8 Reagent) was added to each well, and continued to incubate for 1-3 hours; then its absorbance at 450 nm and 650 nm were measured with a super microplate reader. The median inhibitory concentration (IC50) was calculated using medical graphing software (GraphPad Prism 8.0.0).

Another assay deals with T4, BaF3-ETV6-NTRK2 (Homo sapiens, UniProt Q16620).
T4 construct: fused on or other part: P41212 (Transcription factor ETV6)
The description is as above. Type of assay: cell-based, mouse. The conditions noted are these: 72 hours, read-out: cell viability IC50 ETV6-NTRK2.
Description: as §1, §2, §3

The next assay deals with T5, TRKC (Homo sapiens, UniProt Q16288).
T5 construct: purchased American Life Technologies PV3617
Put plainly: Z'-LYTE kinase activity detection, TRKC. Type of assay: biochemical.

The next assay deals with T6, BaF3-ETV6-NTRK3 (Homo sapiens, UniProt Q16288).
T6 construct: fused on or other part: P41212 (Transcription factor ETV6)
The experiment in a line: Cell proliferation inhibition, Ba/F3-TRKs stable strain (CCK-8). Type of assay: cell-based, mouse. The note with it: 72 hours, read-out: cell viability IC50 ETV6-NTRK3.
Description: as §1, §2, §3

T5 sequence (Q16288 32-839): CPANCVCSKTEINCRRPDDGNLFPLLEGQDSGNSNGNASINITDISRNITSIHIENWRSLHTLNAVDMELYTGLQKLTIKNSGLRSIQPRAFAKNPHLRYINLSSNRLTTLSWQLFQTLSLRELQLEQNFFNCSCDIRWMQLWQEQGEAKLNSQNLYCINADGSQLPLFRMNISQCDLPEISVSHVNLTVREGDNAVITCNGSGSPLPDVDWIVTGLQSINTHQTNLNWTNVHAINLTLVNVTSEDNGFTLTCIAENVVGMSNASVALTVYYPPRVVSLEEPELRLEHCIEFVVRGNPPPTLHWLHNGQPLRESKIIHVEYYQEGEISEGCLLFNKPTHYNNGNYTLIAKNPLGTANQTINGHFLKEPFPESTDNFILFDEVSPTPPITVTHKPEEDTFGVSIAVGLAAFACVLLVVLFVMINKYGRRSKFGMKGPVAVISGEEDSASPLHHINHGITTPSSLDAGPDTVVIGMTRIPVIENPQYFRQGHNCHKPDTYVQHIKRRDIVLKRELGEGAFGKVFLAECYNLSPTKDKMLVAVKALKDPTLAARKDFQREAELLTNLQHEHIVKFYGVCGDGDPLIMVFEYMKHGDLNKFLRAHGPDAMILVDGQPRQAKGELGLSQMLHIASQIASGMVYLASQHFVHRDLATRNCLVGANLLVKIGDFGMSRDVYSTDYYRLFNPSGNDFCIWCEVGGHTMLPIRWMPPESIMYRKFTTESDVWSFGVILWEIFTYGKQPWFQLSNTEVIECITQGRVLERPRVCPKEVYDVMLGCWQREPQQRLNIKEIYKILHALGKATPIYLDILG
T6 sequence (Q16288 whole entry, the tested form may be a part): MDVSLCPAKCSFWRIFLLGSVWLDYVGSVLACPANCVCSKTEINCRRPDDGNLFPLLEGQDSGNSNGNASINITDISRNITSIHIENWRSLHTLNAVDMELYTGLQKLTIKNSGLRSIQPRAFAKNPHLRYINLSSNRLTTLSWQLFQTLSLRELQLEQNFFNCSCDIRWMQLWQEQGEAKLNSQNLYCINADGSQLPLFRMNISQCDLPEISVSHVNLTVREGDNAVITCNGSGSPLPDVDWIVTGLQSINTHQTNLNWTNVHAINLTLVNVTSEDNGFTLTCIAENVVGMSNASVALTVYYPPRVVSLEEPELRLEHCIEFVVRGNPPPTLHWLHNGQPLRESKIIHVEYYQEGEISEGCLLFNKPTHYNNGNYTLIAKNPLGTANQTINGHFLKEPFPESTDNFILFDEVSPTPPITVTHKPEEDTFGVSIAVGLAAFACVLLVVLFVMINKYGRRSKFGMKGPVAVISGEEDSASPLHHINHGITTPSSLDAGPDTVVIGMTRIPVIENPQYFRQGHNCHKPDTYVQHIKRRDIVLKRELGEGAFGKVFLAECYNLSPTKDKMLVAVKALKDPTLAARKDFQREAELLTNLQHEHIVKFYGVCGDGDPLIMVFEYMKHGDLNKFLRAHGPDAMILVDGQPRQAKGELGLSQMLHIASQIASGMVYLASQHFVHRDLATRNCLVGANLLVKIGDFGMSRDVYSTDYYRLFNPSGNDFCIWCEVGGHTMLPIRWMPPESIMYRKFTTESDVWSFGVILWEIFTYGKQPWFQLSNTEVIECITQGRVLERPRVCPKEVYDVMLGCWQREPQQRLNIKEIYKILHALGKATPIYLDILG
T2 sequence (Q16620 32-822): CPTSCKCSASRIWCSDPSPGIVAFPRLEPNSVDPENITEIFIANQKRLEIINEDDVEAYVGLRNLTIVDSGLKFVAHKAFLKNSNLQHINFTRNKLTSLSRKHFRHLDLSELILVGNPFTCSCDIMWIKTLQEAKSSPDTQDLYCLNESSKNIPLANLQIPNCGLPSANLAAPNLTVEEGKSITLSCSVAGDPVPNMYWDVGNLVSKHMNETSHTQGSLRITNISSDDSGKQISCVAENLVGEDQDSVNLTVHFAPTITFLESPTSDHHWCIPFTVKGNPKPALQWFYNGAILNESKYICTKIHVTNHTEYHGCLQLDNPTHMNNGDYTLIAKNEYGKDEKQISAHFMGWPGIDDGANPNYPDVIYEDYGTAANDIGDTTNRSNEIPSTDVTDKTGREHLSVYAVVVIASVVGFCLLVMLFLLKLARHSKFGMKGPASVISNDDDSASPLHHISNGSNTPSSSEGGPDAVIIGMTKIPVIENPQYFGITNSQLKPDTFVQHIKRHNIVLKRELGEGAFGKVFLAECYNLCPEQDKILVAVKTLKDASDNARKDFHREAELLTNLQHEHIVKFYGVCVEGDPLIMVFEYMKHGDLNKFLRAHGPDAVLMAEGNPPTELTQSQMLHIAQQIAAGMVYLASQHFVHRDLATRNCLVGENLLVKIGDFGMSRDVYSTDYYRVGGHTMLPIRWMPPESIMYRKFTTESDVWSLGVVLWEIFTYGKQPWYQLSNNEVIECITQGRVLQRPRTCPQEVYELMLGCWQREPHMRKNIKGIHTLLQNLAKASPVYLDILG
T1 sequence (P04629 33-796): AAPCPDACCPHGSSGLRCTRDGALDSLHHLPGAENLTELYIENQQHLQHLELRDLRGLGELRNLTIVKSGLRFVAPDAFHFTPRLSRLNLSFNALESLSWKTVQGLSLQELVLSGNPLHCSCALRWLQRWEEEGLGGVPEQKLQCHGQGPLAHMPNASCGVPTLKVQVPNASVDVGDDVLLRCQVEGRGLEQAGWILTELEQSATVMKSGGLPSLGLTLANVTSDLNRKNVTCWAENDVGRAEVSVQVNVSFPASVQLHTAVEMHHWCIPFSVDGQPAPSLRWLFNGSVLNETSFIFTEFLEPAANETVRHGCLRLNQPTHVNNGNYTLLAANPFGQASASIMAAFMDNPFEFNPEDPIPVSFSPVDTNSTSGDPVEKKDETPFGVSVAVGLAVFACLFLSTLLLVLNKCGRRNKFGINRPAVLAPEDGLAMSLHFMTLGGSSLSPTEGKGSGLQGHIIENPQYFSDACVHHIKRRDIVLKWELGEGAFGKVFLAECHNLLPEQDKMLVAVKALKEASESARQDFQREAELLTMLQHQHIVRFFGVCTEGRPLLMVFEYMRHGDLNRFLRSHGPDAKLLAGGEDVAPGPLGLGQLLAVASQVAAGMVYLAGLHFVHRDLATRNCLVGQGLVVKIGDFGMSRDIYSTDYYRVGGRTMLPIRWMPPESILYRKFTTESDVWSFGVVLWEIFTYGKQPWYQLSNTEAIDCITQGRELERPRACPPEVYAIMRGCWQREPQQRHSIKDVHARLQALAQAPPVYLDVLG
T3 sequence (P04629 510-796 limits assumed): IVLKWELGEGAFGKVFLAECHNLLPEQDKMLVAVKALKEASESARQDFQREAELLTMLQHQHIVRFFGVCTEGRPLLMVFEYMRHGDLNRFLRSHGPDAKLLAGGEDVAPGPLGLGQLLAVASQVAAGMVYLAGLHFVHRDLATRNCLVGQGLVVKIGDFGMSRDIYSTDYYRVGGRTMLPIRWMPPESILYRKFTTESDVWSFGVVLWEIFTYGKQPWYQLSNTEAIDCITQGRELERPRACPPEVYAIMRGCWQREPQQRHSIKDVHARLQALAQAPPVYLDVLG
T4 sequence (Q16620 538-822 limits assumed): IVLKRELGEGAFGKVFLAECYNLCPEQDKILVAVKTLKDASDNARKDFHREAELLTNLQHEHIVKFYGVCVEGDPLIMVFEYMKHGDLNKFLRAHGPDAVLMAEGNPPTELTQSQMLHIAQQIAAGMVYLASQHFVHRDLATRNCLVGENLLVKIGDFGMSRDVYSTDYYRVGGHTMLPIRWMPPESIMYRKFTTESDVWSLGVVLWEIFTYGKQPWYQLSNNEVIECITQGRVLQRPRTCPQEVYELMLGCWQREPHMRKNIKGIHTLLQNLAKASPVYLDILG

On to `Cc1c(C#Cc2cnc3cccnn23)cccc1C(=O)Nc1cccc(C(F)(F)F)c1` [XS2-106], for which the concentration for half-maximal inhibition (IC50) is 100 to 1000 nM on TRKA, greater than 1000 nM on TRKB, 100 to 1000 nM on BaF3-CD74-NTRK1 and 100 to 1000 nM at BaF3-ETV6-NTRK2.

Take `Cc1c(C#Cc2cnc3cccnn23)cccc1C(=O)Nc1cc(F)cc(C(F)(F)F)c1` [XS2-109, N-(3-FLUORO-5-(TRIFLUOROMETHYL)PHENYL)-3-(IMIDAZO[1,2-B]PYRIDAZIN-3-YLETHYNYL)-2-METHYLBENZENE FORMAMIDE]: the half-inhibitory concentration (IC50) against TRKA is 100 to 1000 nM; against TRKB it was greater than 1000 nM; on TRKC, 100 to 1000 nM.

In the case of `Cc1c(C#Cc2cnc3cccnn23)cccc1C(=O)Nc1cc(Cl)cc(C(F)(F)F)c1` [XS2-112, N-(3-CHLORO-5-(TRIFLUOROMETHYL)PHENYL)-3-(IMIDAZO[1,2-B]PYRIDAZIN-3-YLETHYNYL)-2-METHYLBENZENE FORMAMIDE], the IC50 against TRKA, against TRKB, against TRKC, at BaF3-CD74-NTRK1, at BaF3-ETV6-NTRK2 and on BaF3-ETV6-NTRK3 was 100 to 1000 nM each time.

As for `Cc1c(C#Cc2cnc3ncccn23)cccc1C(=O)Nc1cc(CN2CCN(C)CC2)cc(C(F)(F)F)c1` [XS2-161], the IC50 at TRKA is 100 to 1000 nM; on TRKB it was greater than 1000 nM; at TRKC it was 100 to 1000 nM; on BaF3-CD74-NTRK1, greater than 1000 nM; at BaF3-ETV6-NTRK2, greater than 1000 nM; on BaF3-ETV6-NTRK3, greater than 1000 nM.

Regarding `Cc1c(C#Cc2cnc3ccc(N4CCOCC4)nn23)cccc1C(=O)Nc1cccc(C(F)(F)F)c1` [XS3-23, 2-METHYL-3-((6-MORPHOLINIMIDAZO[1,2-B]PYRIDAZIN-3-YL)ETHYNYL)-N-(3-(TRIFLUOROMETHYL)BENZENE BASE) BENZAMIDE], the IC50 on TRKA, on TRKB, on TRKC, on BaF3-CD74-NTRK1, on BaF3-ETV6-NTRK2 and at BaF3-ETV6-NTRK3 was 10 to 100 nM in each case.

On to `Cc1c(C#Cc2cnc3ccc(N4CC[C@H](O)C4)nn23)cccc1C(=O)Nc1cccc(C(F)(F)F)c1` [XS3-35, (S)-3-((6-(3-HYDROXYPYRROLIDIN-1-YL)IMIDAZO[1,2-B]PYRIDAZIN-3-YL)ETHYNYL)-2-METHYL-N-(3-(TRIFLUOROMETHYL)PHENYL)BENZAMIDE], for which the IC50 on TRKA was less than 10 nM; against TRKB, 10 to 100 nM; against TRKC it was less than 10 nM; on BaF3-CD74-NTRK1, 10 to 100 nM; at BaF3-ETV6-NTRK2, 100 to 1000 nM; at BaF3-ETV6-NTRK3, 10 to 100 nM.

Turning to `Cc1c(C#Cc2cnc3ccc(N4CC[C@H](O)C4)nn23)cccc1C(=O)Nc1cc(CN2CCN(C)CC2)cc(C(F)(F)F)c1` [XS3-36, (S)-3-((6-(3-HYDROXYPYRROLIDIN-1-YL)IMIDAZO[1,2-B]PYRIDAZIN-3-YL)ETHYNYL)-2-METHYL-N-(3-((4-METHYLPIPERAZIN-1-YL)METHYL)-5-(TRIFLUOROMETHYL)PHENYL)BENZAMIDE], the IC50 against TRKA was 10 to 100 nM; at TRKB, 10 to 100 nM; against TRKC, less than 10 nM; at BaF3-CD74-NTRK1, 10 to 100 nM; on BaF3-ETV6-NTRK2, 10 to 100 nM; at BaF3-ETV6-NTRK3, 10 to 100 nM.

As for `Cc1c(C#Cc2cnc3ccc(N4CCN(C)CC4)nn23)cccc1C(=O)Nc1cc(Cl)cc(C(F)(F)F)c1` [XS3-51, N-(3-CHLORO-5-(TRIFLUOROMETHYL)PHENYL)-2-METHYL-3-((6-(4-METHYLPIPERAZIN-1-YL)IMIDAZO[1,2-B]PYRIDAZIN-3-YL)ETHYNYL)BENZAMIDE], the IC50 on TRKA is 10 to 100 nM; against TRKB it was 10 to 100 nM; on TRKC it was less than 10 nM; at BaF3-CD74-NTRK1 it was 100 to 1000 nM; at BaF3-ETV6-NTRK2 it was 100 to 1000 nM; at BaF3-ETV6-NTRK3 it was 10 to 100 nM.

Take `Cc1c(C#Cc2cnc3ccc(N4CCN(C)[C@H](C)C4)nn23)cccc1C(=O)Nc1cc(Cl)cc(C(F)(F)F)c1` [XS3-52, (R)—N-(3-CHLORO-5-(TRIFLUOROMETHYL)PHENYL)-3-((6-(3,4-DIMETHYLPIPERAZIN-1-YL)IMIDAZO[1,2-B]PYRIDAZIN-3-YL)ETHYNYL)-2-METHYLBENZAMIDE]: the IC50 against TRKA was 10 to 100 nM; at TRKB it was 10 to 100 nM; against TRKC, 10 to 100 nM; at BaF3-CD74-NTRK1, 10 to 100 nM; on BaF3-ETV6-NTRK2, 100 to 1000 nM; on BaF3-ETV6-NTRK3, 10 to 100 nM.

For the compound `Cc1c(C#Cc2cnc3ccc(NCCN4CCOCC4)nn23)cccc1C(=O)Nc1cc(Cl)cc(C(F)(F)F)c1` [XS3-53, N-(3-CHLORO-5-(TRIFLUOROMETHYL)PHENYL)-2-METHYL-3-((6-((2-MORPHOLINOETHYL)AMINO)IMIDAZO[1,2-B]PYRIDAZIN-3-YL)ETHYNYL)BENZAMIDE], the IC50 against TRKA is less than 10 nM; against TRKB, 10 to 100 nM; at TRKC, less than 10 nM; at BaF3-CD74-NTRK1, 10 to 100 nM; on BaF3-ETV6-NTRK2 it was 100 to 1000 nM; at BaF3-ETV6-NTRK3, 10 to 100 nM.

Take `CC(=O)N1CCN(c2ccc3ncc(C#Cc4cccc(C(=O)Nc5cc(Cl)cc(C(F)(F)F)c5)c4C)n3n2)CC1` [XS3-54, 3-((6-(4-ACETYLPIPERAZIN-1-YL)IMIDAZO[1,2-B]PYRIDAZIN-3-YL)ETHYNYL)-N-(3-CHLORO-5-(TRIFLUORO) METHYL)PHENYL)-2-METHYLBENZAMIDE]: the IC50 is less than 10 nM on TRKA; 10 to 100 nM against TRKB; less than 10 nM on TRKC; 10 to 100 nM on BaF3-CD74-NTRK1; 10 to 100 nM on BaF3-ETV6-NTRK2; 10 to 100 nM at BaF3-ETV6-NTRK3.

For the compound `Cc1c(C#Cc2cnc3ccc(N4CCC(N(C)C)CC4)nn23)cccc1C(=O)Nc1cc(Cl)cc(C(F)(F)F)c1` [XS3-56, N-(3-CHLORO-5-(TRIFLUOROMETHYL)PHENYL)-3-((6-(4-(DIMETHYLAMINO)PIPERIDIN-1-YL)IMIDAZO[1,2-B]PYRIDAZIN-3-YL)ETHYNYL)-2-METHYLBENZAMIDE], the IC50 is 10 to 100 nM on TRKA; 10 to 100 nM on TRKB; 10 to 100 nM against TRKC; 100 to 1000 nM at BaF3-CD74-NTRK1; 100 to 1000 nM at BaF3-ETV6-NTRK2; 10 to 100 nM on BaF3-ETV6-NTRK3.

Regarding `Cc1c(C#Cc2cnc3ccc(N4CCC(N(C)C)CC4)nn23)cccc1C(=O)Nc1cccc(C(F)(F)F)c1` [XS3-57, 3-((6-(4-(DIMETHYLAMINO)PIPERIDIN-1-YL)IMIDAZO[1,2-B]PYRIDAZIN-3-YL)ETHYNYL)-2-METHYL-N-(3-(TRIFLUOROMETHYL)PHENYL)BENZAMIDE], the IC50 was less than 10 nM against TRKA; less than 10 nM on TRKB; less than 10 nM on TRKC; 10 to 100 nM on BaF3-CD74-NTRK1; 100 to 1000 nM on BaF3-ETV6-NTRK2; 10 to 100 nM at BaF3-ETV6-NTRK3.

Take `Cc1c(C#Cc2cnc3ccc(N4CC[C@H](O)C4)nn23)cccc1C(=O)Nc1cc(Cl)cc(C(F)(F)F)c1` [XS3-58, (S)—N-(3-CHLORO-5-(TRIFLUOROMETHYL)PHENYL)-3-((6-(3-HYDROXYPYRROLIDIN-1-YL)IMIDAZO[1,2-B]PYRIDAZIN-3-YL)ETHYNYL)-2-METHYLBENZAMIDE]: the IC50 at TRKA lay within 10 to 100 nM; on TRKB it was 10 to 100 nM; against TRKC, 10 to 100 nM; at BaF3-CD74-NTRK1 it was 100 to 1000 nM; at BaF3-ETV6-NTRK2, 100 to 1000 nM; on BaF3-ETV6-NTRK3, 10 to 100 nM.

Take `Cc1c(C#Cc2cnc3ccc(N4CCOCC4)nn23)cccc1C(=O)Nc1cc(Cl)cc(C(F)(F)F)c1` [XS3-61, N-(3-CHLORO-5-(TRIFLUOROMETHYL)PHENYL)-2-METHYL-3-((6-MORPHOLINIMIDAZO[1,2-B]PYRIDAZINE-3-YL)ETHYNYL)BENZAMIDE]: the IC50 at TRKA, on TRKB, on TRKC, at BaF3-CD74-NTRK1 and at BaF3-ETV6-NTRK3 was 10 to 100 nM throughout.

Take `Cc1c(C#Cc2cnc3ccc(N4CCOCC4)nn23)cccc1C(=O)Nc1cc(F)cc(C(F)(F)F)c1` [XS4-80]: the IC50 at TRKA, at TRKC, at BaF3-CD74-NTRK1, on BaF3-ETV6-NTRK2 and at BaF3-ETV6-NTRK3 was 10 to 100 nM throughout.

Take `Cc1cc(NC(=O)c2cccc(C#Cc3cnc4ccc(N5CCOCC5)nn34)c2C)cc(C(F)(F)F)c1` [XS4-81]: the 50% inhibitory concentration (IC50) against TRKA was 10 to 100 nM; against TRKC, 10 to 100 nM; on BaF3-CD74-NTRK1, 10 to 100 nM; at BaF3-ETV6-NTRK2, 10 to 100 nM; at BaF3-ETV6-NTRK3 it was less than 10 nM.
